Results reported in patent US10722514B2 (FLX Bio, Inc., priority 2017, dated 2020).

Target: T1, recombinant full-length USP7 (Homo sapiens, UniProt Q93009)
T1 construct: A 25 μl reaction volume containing recombinant full-length USP7 (62 pM)
Assay: USP7-mediated ubiquitin-rhodamine cleavage assay
Format: biochemical
Settings: recombinant full-length USP7 62 pM; ubiquitin-rhodamine 100 nM; 30-minute incubation with compound, 1 hour reaction at room temperature; read-out: Potency: USP7 IC50
Procedure, shortened: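 Full-length recombinant USP7 (62 pM) in 20 mM HEPES pH 7.3, 150 mM NaCl, 1 mM TCEP, 125 μg/ml BSA, 1% DMSO, preincubated with compound 30 min at RT. Ubiquitin-rhodamine (100 nM final) cleaved 1 h at RT in the dark, stopped with acetic acid; rhodamine fluorescence read, IC50 by 4-parameter nonlinear fit.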

T1 sequence (Q93009 whole entry): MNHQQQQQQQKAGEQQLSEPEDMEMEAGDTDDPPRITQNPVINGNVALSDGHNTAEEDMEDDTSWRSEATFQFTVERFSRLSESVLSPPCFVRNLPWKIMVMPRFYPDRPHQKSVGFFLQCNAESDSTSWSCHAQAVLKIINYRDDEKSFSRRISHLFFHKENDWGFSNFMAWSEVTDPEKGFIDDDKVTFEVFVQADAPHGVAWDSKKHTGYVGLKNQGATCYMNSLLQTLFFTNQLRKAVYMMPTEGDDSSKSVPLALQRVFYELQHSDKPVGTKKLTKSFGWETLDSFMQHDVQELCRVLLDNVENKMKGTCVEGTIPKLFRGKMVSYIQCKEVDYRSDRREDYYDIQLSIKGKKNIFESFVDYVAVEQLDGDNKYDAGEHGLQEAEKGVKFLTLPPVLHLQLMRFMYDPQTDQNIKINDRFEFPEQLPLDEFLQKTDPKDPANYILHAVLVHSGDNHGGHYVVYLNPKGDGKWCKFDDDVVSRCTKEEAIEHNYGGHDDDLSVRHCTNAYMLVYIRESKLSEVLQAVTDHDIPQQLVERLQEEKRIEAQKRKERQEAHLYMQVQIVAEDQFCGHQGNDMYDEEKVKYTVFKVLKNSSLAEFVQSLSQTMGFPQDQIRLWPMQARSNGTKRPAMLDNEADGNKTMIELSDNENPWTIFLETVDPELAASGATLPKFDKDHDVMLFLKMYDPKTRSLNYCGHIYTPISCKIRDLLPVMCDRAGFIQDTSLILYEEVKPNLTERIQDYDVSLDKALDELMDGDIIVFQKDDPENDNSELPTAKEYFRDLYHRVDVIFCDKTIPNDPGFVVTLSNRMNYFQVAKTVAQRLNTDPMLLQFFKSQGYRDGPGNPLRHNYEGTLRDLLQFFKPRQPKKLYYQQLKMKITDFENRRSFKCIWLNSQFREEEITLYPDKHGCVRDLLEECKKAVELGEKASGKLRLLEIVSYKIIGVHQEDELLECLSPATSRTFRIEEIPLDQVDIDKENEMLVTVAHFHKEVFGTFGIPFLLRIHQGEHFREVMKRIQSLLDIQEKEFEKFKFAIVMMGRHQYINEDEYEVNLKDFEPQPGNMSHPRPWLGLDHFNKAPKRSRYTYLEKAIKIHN

Structure (SMILES) | IC50
Cc1cc(Cl)cc(-c2ccnc3cc(CN4C(=O)C5CCCCN5C4=O)sc23)c1OC1CCNCC1 (stereo not shown) [Example 228, 2-((7-(5-Chloro-3-methyl-2-(piperidin-4-yloxy)phenyl)thieno[3,2-b]pyridin-2-yl)methyl)tetrahydroimidazo[1,5-a]pyridine-1,3(2H,5H)-dione] | < 1 µM
Cc1cc(Cl)cc(-c2ncnc3cc(CN4C(=O)CCC4=O)sc23)c1O[C@H]1CCCNC1 [Example 230, (S)-1-((4-(5-Chloro-3-methyl-2-(piperidin-3-yloxy)phenyl)thieno[3,2-d]pyrimidin-6-yl)methyl)pyrrolidine-2,5-dione] | < 1 µM
Cc1cc(Cl)cc(-c2ncnc3cc(Cn4c(=O)ccn(C)c4=O)sc23)c1OC1CCNCC1 [Example 232, 3-((4-(5-Chloro-3-methyl-2-(piperidin-4-yloxy)phenyl)thieno[3,2-d]pyrimidin-6-yl)methyl)-1-methylpyrimidine-2,4(1H,3H)-dione] | < 1 µM
Cc1cc(Cl)cc(-c2ccnc3cc(CN4C(=O)C5CC5C4=O)sc23)c1OC1CCNCC1 (stereo not shown) [Example 233, 3-((7-(5-Chloro-3-methyl-2-(piperidin-4-yloxy)phenyl)thieno[3,2-b]pyridin-2-yl)methyl)-3-azabicyclo[3.1.0]hexane-2,4-dione] | < 1 µM
Cc1cc(Cl)cc(-c2ccnc3cc(CN4C(=O)CCC4=O)sc23)c1OC1CCNCC1CO (stereo not shown) [Example 234, 1-((7-(5-Chloro-2-((3-(hydroxymethyl)piperidin-4-yl)oxy)-3-methylphenyl)thieno[3,2-b]pyridin-2-yl)methyl)pyrrolidine-2,5-dione] | < 1 µM
Cc1cc(Cl)cc(-c2ccnc3cc(CN4C(=O)CCCC4=O)sc23)c1OC1CCNCC1 [Example 235, 1-((7-(5-Chloro-3-methyl-2-(piperidin-4-yloxy)phenyl)thieno[3,2-b]pyridin-2-yl)methyl)piperidine-2,6-dione] | < 1 µM
Cc1cc(Cl)cc(-c2ccnc3ccsc23)c1O[C@H]1CCCN(C)C1 [Example 240, (S)-7-(5-Chloro-3-methyl-2-((1-methylpiperidin-3-yl)oxy)phenyl)thieno[3,2-b]pyridine] | > 30 µM
Cc1cc(Cl)cc(-c2ccnc3cc([C@H](C)N4C(=O)CCC4=O)sc23)c1O[C@H]1CCCNC1 [Example 241, 1-((S)-1-(7-(5-Chloro-3-methyl-2-(((S)-piperidin-3-yl)oxy)phenyl)thieno[3,2-b]pyridin-2-yl)ethyl)pyrrolidine-2,5-dione] | < 1 µM
Cc1cc(Cl)cc(-c2ccnc3cc(CN4C(=O)CCC4=O)sc23)c1O[C@@H]1CNCC[C@@H]1C [Example 243, 1-((7-(5-Chloro-3-methyl-2-(((3S,4S)-4-methylpiperidin-3-yl)oxy)phenyl)thieno[3,2-b]pyridin-2-yl)methyl)pyrrolidine-2,5-dione] | < 1 µM
Cc1cc(Cl)cc(-c2ncnc3cc(CN4C(=O)C5CC5C4=O)sc23)c1O[C@H]1CCCNC1 (stereo partly drawn) [Example 245, 3-((4-(5-Chloro-3-methyl-2-(((S)-piperidin-3-yl)oxy)phenyl)thieno[3,2-d]pyrimidin-6-yl)methyl)-3-azabicyclo[3.1.0]hexane-2,4-dione] | < 1 µM
Cc1cc(C)c(O[C@H]2CCCNC2)c(-c2ccnc3cc(CO)sc23)c1 [Example 248, (S)-(7-(3,5-Dimethyl-2-(piperidin-3-yloxy)phenyl)thieno[3,2-b]pyridin-2-yl)methanol] | 10 to 30 µM
Cc1cc(Cl)cc(-c2ccnc3cc(CN4C(=O)CSC4=O)sc23)c1O[C@H]1CCCNC1 [Example 249, (S)-3-((7-(5-Chloro-3-methyl-2-(piperidin-3-yloxy)phenyl)thieno[3,2-b]pyridin-2-yl)methyl)thiazolidine-2,4-dione] | < 1 µM
Cc1cc(Cl)cc(-c2ncnc3cc(Cn4c(=O)ccn(C)c4=O)sc23)c1O[C@H]1CCCNC1 [Example 251, (S)-3-((4-(5-Chloro-3-methyl-2-(piperidin-3-yloxy)phenyl)thieno[3,2-d]pyrimidin-6-yl)methyl)-1-methylpyrimidine-2,4(1H,3H)-dione] | < 1 µM
Cc1cc(C(F)(F)F)cc(-c2ccnc3cc(CN4C(=O)CCC4=O)sc23)c1OC1CCNCC1 [Example 253, 1-((7-(3-Methyl-2-(piperidin-4-yloxy)-5-(trifluoromethyl)phenyl)thieno[3,2-b]pyridin-2-yl)methyl)pyrrolidine-2,5-dione] | < 1 µM
Cc1cc(C(F)(F)F)cc(-c2ccnc3cc(CN4C(=O)CCC4=O)sc23)c1O[C@H]1CCCNC1 [Example 254, (S)-1-((7-(3-Methyl-2-(piperidin-3-yloxy)-5-(trifluoromethyl)phenyl)thieno[3,2-b]pyridin-2-yl)methyl)pyrrolidine-2,5-dione] | < 1 µM
Cc1cc(Cl)cc(-c2ccnc3cc(Cn4c(=O)ccn(C)c4=O)sc23)c1OC1CCN(C2COC2)CC1 [Example 255, 3-((7-(5-Chloro-3-methyl-2-((1-(oxetan-3-yl)piperidin-4-yl)oxy)phenyl)thieno[3,2-b]pyridin-2-yl)methyl)-1-methylpyrimidine-2,4(1H,3H)-dione] | < 1 µM
Cc1cc(Cl)cc(-c2ccnc3cc(CN4C(=O)CC(C)(C)CC4=O)sc23)c1OC1CCNCC1 [Example 258, 1-((7-(5-Chloro-3-methyl-2-(piperidin-4-yloxy)phenyl)thieno[3,2-b]pyridin-2-yl)methyl)-4,4-dimethylpiperidine-2,6-dione] | < 1 µM
Cc1cc(Cl)cc(-c2ncnc3cc(CN4C(=O)CCCC4=O)sc23)c1OC1CCNCC1 [Example 259, 1-((4-(5-Chloro-3-methyl-2-(piperidin-4-yloxy)phenyl)thieno[3,2-d]pyrimidin-6-yl)methyl)piperidine-2,6-dione] | 1 to 10 µM

Results, then the compound that gave them:

IC50 | Structure (SMILES)
< 1 µM | Cc1cc(Cl)cc(-c2ccnc3cc(CN4C(=O)CCC4=O)sc23)c1O[C@H]1CCNC[C@H]1C [Example 229, 1-((7-(5-Chloro-3-methyl-2-(((3R,4S)-3-methylpiperidin-4-yl)oxy)phenyl)thieno[3,2-b]pyridin-2-yl)methyl)pyrrolidine-2,5-dione]
1 to 10 µM | Cc1cc(Cl)cc(-c2ncnc3cc(CN4C(=O)C5CC5C4=O)sc23)c1OC1CCNCC1 (stereo not shown) [Example 231, 3-((4-(5-Chloro-3-methyl-2-(piperidin-4-yloxy)phenyl)thieno[3,2-d]pyrimidin-6-yl)methyl)-3-azabicyclo[3.1.0]hexane-2,4-dione]
< 1 µM | Cc1cc(Cl)cc(-c2ccnc3cc(CN4C(=O)CC5(CCCC5)CC4=O)sc23)c1OC1CCNCC1 [Example 236, 8-((7-(5-Chloro-3-methyl-2-(piperidin-4-yloxy)phenyl)thieno[3,2-b]pyridin-2-yl)methyl)-8-azaspiro[4.5]decane-7,9-dione]
< 1 µM | Cc1cc(Cl)cc(-c2ccnc3cc(CN4C(=O)CCCC4=O)sc23)c1O[C@H]1CCCNC1 [Example 237, (S)-1-((7-(5-Chloro-3-methyl-2-(piperidin-3-yloxy)phenyl)thieno[3,2-b]pyridin-2-yl)methyl)piperidine-2,6-dione]
10 to 30 µM | Cc1cc(F)cc(-c2ccnc3cc(CO)sc23)c1O[C@H]1CCCNC1 [Example 238, (S)-(7-(5-Fluoro-3-methyl-2-(piperidin-3-yloxy)phenyl)thieno[3,2-b]pyridin-2-yl)methanol]
> 30 µM | N#Cc1cc(Cl)cc(-c2ccnc3cc(CO)sc23)c1O[C@H]1CCCNC1 [Example 239, (S)-5-Chloro-3-(2-(hydroxymethyl)thieno[3,2-b]pyridin-7-yl)-2-(piperidin-3-yloxy)benzonitrile]
< 1 µM | Cc1cc(Cl)cc(-c2ccnc3c(F)c(CN4C(=O)CCC4=O)sc23)c1OC1CCNCC1 [Example 242, 1-((7-(5-Chloro-3-methyl-2-(piperidin-4-yloxy)phenyl)-3-fluorothieno[3,2-b]pyridin-2-yl)methyl)pyrrolidine-2,5-dione]
< 1 µM | Cc1cc(Cl)cc(-c2ccnc3cc(CN4C(=O)C5CC5C4=O)sc23)c1O[C@H]1CCCNC1 (stereo partly drawn) [Example 244, 3-((7-(5-Chloro-3-methyl-2-(((S)-piperidin-3-yl)oxy)phenyl)thieno[3,2-b]pyridin-2-yl)methyl)-3-azabicyclo[3.1.0]hexane-2,4-dione]
10 to 30 µM | CN[C@H]1CC[C@@H](Oc2c(C)cc(Cl)cc2-c2ccnc3cc(CO)sc23)CC1 [Example 247, (7-(5-Chloro-3-methyl-2-(((l s,4s)-4-(methylamino)cyclohexyl)oxy)phenyl)thieno[3,2-b]pyridin-2-yl)methanol]
< 1 µM | Cc1cc(Cl)cc(-c2ncnc3cc(CN4C(=O)CSC4=O)sc23)c1O[C@H]1CCCNC1 [Example 250, (S)-3-((4-(5-Chloro-3-methyl-2-(piperidin-3-yloxy)phenyl)thieno[3,2-d]pyrimidin-6-yl)methyl)thiazolidine-2,4-dione]
< 1 µM | Cc1cc(Cl)cc(-c2ncnc3cc(CN4C(=O)CCN(C)C4=O)sc23)c1O[C@H]1CCCNC1 [Example 252, (S)-3-((4-(5-Chloro-3-methyl-2-(piperidin-3-yloxy)phenyl)thieno[3,2-d]pyrimidin-6-yl)methyl)-1-methyldihydropyrimidine-2,4(1H,3H)-dione]
1 to 10 µM | CC[C@@H](c1cc2nccc(-c3cc(Cl)cc(C)c3OC3CCNCC3)c2s1)N1C(=O)CCC1=O [Example 256, (S)-1-(1-(7-(5-Chloro-3-methyl-2-(piperidin-4-yloxy)phenyl)thieno[3,2-b]pyridin-2-yl)propyl)pyrrolidine-2,5-dione]
< 1 µM | CC[C@@H](c1cc2nccc(-c3cc(Cl)cc(C)c3O[C@H]3CCCNC3)c2s1)N1C(=O)CCC1=O [Example 257, 1-((S)-1-(7-(5-Chloro-3-methyl-2-(((S)-piperidin-3-yl)oxy)phenyl)thieno[3,2-b]pyridin-2-yl)propyl)pyrrolidine-2,5-dione]
